Test: xn = mol fraction of the nth substance listed
Settings: 101.3 kPa

CCC[N+](C)(C)C.O=S(=O)([N-]S(=O)(=O)C(F)(F)F)C(F)(F)F + CCC[N+]1(C)CCCCC1.O=S(=O)([N-]S(=O)(=O)C(F)(F)F)C(F)(F)F
viscosity [mPa·s]
Settings | x1 = 0.2 | x1 = 0.4 | x1 = 0.6 | x1 = 0.8 | x1 = 1
283.15 K | 340 | 292 | – | – | 179
288.15 K | 240 | 209 | 180 | 149 | 133
293.15 K | 175 | 154 | – | – | 102
298.15 K | 131 | 117 | 103 | 88 | 79
303.15 K | 101 | 90 | 80 | 70 | 63
308.15 K | 78 | – | – | 56 | 51
313.15 K | 62 | 57 | 51 | – | 42
318.15 K | 51 | – | – | 38 | 35
323.15 K | 41.5 | 38.4 | 35.2 | 31.8 | 29.5
328.15 K | 34.6 | 32.1 | 29.6 | 27 | 25.2
333.15 K | 29.1 | 27.2 | 25.3 | 23.2 | 21.7
338.15 K | 24.8 | 23.3 | 21.7 | 20 | 18.8
343.15 K | 21.4 | – | 18.9 | – | 16.5
348.15 K | 18.6 | 17.6 | 16.5 | – | –
353.15 K | 16.3 | 15.4 | 14.6 | 13.6 | 12.9

CCCCC[N+](CC)(CC)CC.O=S(=O)([N-]S(=O)(=O)C(F)(F)F)C(F)(F)F + CCCCC[P+](CC)(CC)CC.O=S(=O)([N-]S(=O)(=O)C(F)(F)F)C(F)(F)F
viscosity [mPa·s]
Settings | x1 = 0.2 | x1 = 0.4 | x1 = 0.6 | x1 = 0.8 | x1 = 1
283.15 K | 229 | 266 | 316 | 386 | 479
288.15 K | 168 | 192 | 225 | 270 | 329
293.15 K | 126 | 143 | 165 | 194 | 233
298.15 K | 97 | 108 | – | 144 | 169
303.15 K | 75 | 84 | 94 | 109 | –
308.15 K | 60 | 66 | 74 | 84 | 96
313.15 K | 48.3 | 53 | 58 | 66 | 75
318.15 K | – | 42.9 | 47.2 | 53 | 60
323.15 K | 32.7 | 35.4 | 38.6 | 42.9 | 48
328.15 K | 27.4 | 29.5 | 32.1 | 35.4 | 39.3
333.15 K | 23.2 | 24.9 | 26.9 | 29.5 | 32.6
338.15 K | 19.9 | 21.2 | – | 24.9 | 27.4
343.15 K | 17.2 | 18.3 | 19.6 | 21.3 | –
348.15 K | 15 | 15.9 | 16.9 | – | 19.9
353.15 K | – | 13.9 | 14.8 | 15.9 | –

CCC[N+](C)(C)C.O=S(=O)([N-]S(=O)(=O)C(F)(F)F)C(F)(F)F + CCC[N+]1(C)CCCC1.O=S(=O)([N-]S(=O)(=O)C(F)(F)F)C(F)(F)F
viscosity [mPa·s]
Settings | x1 = 0.2 | x1 = 0.4 | x1 = 0.6 | x1 = 0.8 | x1 = 1
283.15 K | 129 | – | – | 160 | –
288.15 K | 101 | 104 | – | 121 | –
293.15 K | 78 | – | 88 | 94 | 102
298.15 K | 63 | 65 | 70 | 74 | 79
303.15 K | 51 | 52 | 56 | – | 63
308.15 K | – | 43.1 | – | 48.3 | 51
313.15 K | 35.2 | 35.9 | – | 39.9 | 42
318.15 K | 29.8 | 30.3 | 32.1 | – | 35
323.15 K | 25.5 | 25.8 | 27.3 | – | –
328.15 K | – | – | 23.4 | – | 25.2
333.15 K | – | – | – | 20.9 | –
338.15 K | 16.8 | 16.9 | 17.7 | 18.2 | 18.8
343.15 K | 14.8 | – | 15.6 | 16 | 16.5
348.15 K | 13.2 | – | 13.8 | 14.2 | 14.6
353.15 K | – | 11.9 | – | 12.6 | 12.9

CCC[N+]1(C)CCCCC1.O=S(=O)([N-]S(=O)(=O)C(F)(F)F)C(F)(F)F + CCC[N+](C)(C)C.O=S(=O)([N-]S(=O)(=O)C(F)(F)F)C(F)(F)F
x2 = 0
Settings | viscosity [mPa·s]
283.15 K | 397
288.15 K | 277
308.15 K | 87
318.15 K | 55
323.15 K | 45.1
328.15 K | 37.3
333.15 K | 31.4
348.15 K | 19.8
353.15 K | 17.3

CCC[N+]1(C)CCCC1.O=S(=O)([N-]S(=O)(=O)C(F)(F)F)C(F)(F)F + CCC[N+](C)(C)C.O=S(=O)([N-]S(=O)(=O)C(F)(F)F)C(F)(F)F
x2 = 0
Settings | viscosity [mPa·s]
283.15 K | 126
288.15 K | 97
293.15 K | 76
303.15 K | 50
308.15 K | 41.1
313.15 K | 34.4
318.15 K | 29.2
323.15 K | 25
328.15 K | 21.6
333.15 K | 18.8
338.15 K | 16.6
343.15 K | 14.7
348.15 K | 13.1
353.15 K | 11.7

CCCCC[P+](CC)(CC)CC.O=S(=O)([N-]S(=O)(=O)C(F)(F)F)C(F)(F)F + CCCCC[N+](CC)(CC)CC.O=S(=O)([N-]S(=O)(=O)C(F)(F)F)C(F)(F)F
x2 = 0
Settings | viscosity [mPa·s]
288.15 K | 150
293.15 K | 113
298.15 K | 87
303.15 K | 69
308.15 K | 55
313.15 K | 44.5
318.15 K | 36.6
328.15 K | 25.6
333.15 K | 21.8
338.15 K | 18.7
343.15 K | 16.2
348.15 K | 14.2
353.15 K | 12.5

From a compilation of properties of binary mixtures (doi:10.1021/acs.jced.8b00334)
